# Source: article PMC7663272, “Discovery of Tricyclic Pyranochromenone as Novel Bruton’s Tyrosine Kinase Inhibitors with In Vivo Antirheumatic Activity” (International Journal of Molecular Sciences, 2020)
# What was measured:
# [1] = biological target: T1, CYP2C19 (Homo sapiens, UniProt P33261); experiment: P450-Glo CYP inhibition assay, CYP2C19; type: in vitro ADME
# T1 construct: purchased Promega V9880
# Method: (§1) The potential for CYP450 inhibition (CYP1A2, 2C9, 2C19, 2D6, and […]) was assessed using Promega P450-Glo^TM CYP450 assay systems. Luciferin-ME served as the substrate for CYP1A2, and the inhibitor α-naphthoflavone was used as a positive control. Luciferin-H was used as the substrate for CYP2C9, and the inhibitor sulfaphenazole was used as a positive control. Luciferin-H EGE was selected as the substrate for CYP2C19, whereas the inhibitor amitriptyline served as a positive control. Luciferin-ME EGE was used as the substrate for CYP2D6, whereas the inhibitor quinidine served as a positive control. Luciferin-BE was used as the substrate for CYP3A4, whereas the inhibitor ketoconazole was used as a positive control. The assays were performed using the excitation and emission wavelengths recommended by the manufacturer. Briefly, a CYP enzyme and a P450-Glo™ substrate were combined in potassium phosphate (0.1 M KPO4) buffer, with or without a test compound of interest, and […]. The reaction was initiated by adding two volumes of 2 times concentrated NADPH regeneration system. […] Luminescence was subsequently measured using a Tecan Infinite M1000 PRO microplate reader (Tecan Group Ltd., Switzerland). The percent inhibition was calculated relative to that of the positive control at a fixed concentration. […]
# [2] = biological target: T2, CYP2D6 (Homo sapiens, UniProt P10635); experiment: P450-Glo CYP inhibition assay, CYP2D6; type: in vitro ADME
# T2 construct: purchased Promega V9890
# Method: as §1
# [3] = system: TNF-α production in LPS-stimulated THP-1 cells; experiment: LPS-induced TNF-α release in THP-1 cells (ELISA); type: cell-based, human
# Excerpt: BTK plays a critical role in high-affinity IgE receptor (FcεRI) and B cell receptor (BCR) signaling, resulting in the release of proinflammatory cytokines. Therefore, BTK inhibitor treatment can reduce the production of both lymphoid and myeloid cytokines. […] We examined the cellular effects of compound 8 on the production of cytokines IL-6 and TNF-α in LPS-stimulated THP-1 cells. Following treatment with LPS alone or LPS and compound 8, the levels of cytokines secreted by THP-1 cells were assessed (Figure 5). LPS increased the output of proinflammatory cytokines.
# THP-1 cells were obtained from the American Type Culture Collection (ATCC, Manassas, VA, USA). The cells were cultured in RPMI-1640 supplemented with 10% FBS, 1% P/S, and 0.05 mM 2-mercaptoethanol and maintained at 37 °C and 5% CO2 in a humidified incubator. Cytokine secretion (hIL-6 and TNF-α) in the culture supernatants of the THP-1 cells was measured using a human cytokine ELISA kit (Abcam). Differentiated THP-1 cells were treated with agents and LPS for 24 h, after which the cell culture media was centrifuged at 2000× g for 10 min to remove debris. Briefly, each sample (50 μL) or standard was mixed with the appropriate detection antibody and incubated for 1 h at room temperature on a plate shaker. […] Subsequently, 100 μL of stop solution was added to each well, and the optical density (OD) was measured at 450 nm. […]
# [4] = biological target: T3, CYP1A2 (Homo sapiens, UniProt P05177); experiment: P450-Glo CYP inhibition assay, CYP1A2; type: in vitro ADME
# T3 construct: purchased Promega V9770
# T3 sequence (P05177 1-516): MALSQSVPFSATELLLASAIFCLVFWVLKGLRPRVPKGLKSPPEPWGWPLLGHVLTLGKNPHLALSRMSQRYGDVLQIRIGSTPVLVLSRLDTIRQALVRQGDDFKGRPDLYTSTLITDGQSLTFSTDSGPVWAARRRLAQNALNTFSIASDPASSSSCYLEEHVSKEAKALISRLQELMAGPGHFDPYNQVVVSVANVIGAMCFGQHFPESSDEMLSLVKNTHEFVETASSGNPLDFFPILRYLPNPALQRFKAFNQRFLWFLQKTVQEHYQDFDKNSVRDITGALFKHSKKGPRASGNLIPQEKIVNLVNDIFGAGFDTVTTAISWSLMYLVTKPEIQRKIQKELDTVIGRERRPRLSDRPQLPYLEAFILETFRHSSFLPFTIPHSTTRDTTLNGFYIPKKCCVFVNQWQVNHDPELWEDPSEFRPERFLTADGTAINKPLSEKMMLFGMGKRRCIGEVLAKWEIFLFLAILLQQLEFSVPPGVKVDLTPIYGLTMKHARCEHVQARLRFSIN
# Method: as §1
# [5] = % inhibition of human CYP isozymes at 10 μM
# T2 sequence (P10635 whole entry): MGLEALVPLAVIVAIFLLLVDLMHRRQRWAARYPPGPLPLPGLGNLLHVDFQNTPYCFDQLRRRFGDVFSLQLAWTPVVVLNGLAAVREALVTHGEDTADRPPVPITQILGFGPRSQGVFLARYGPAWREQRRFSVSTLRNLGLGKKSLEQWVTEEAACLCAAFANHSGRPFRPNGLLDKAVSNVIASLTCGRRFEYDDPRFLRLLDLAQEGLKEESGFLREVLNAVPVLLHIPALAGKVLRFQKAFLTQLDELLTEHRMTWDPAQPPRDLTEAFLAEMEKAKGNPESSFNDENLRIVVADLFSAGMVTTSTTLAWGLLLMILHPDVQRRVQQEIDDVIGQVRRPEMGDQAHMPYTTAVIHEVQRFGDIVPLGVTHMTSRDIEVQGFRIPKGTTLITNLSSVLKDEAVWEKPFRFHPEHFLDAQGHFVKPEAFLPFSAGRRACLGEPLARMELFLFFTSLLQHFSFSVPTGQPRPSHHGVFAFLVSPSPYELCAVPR
# T1 sequence (P33261 whole entry): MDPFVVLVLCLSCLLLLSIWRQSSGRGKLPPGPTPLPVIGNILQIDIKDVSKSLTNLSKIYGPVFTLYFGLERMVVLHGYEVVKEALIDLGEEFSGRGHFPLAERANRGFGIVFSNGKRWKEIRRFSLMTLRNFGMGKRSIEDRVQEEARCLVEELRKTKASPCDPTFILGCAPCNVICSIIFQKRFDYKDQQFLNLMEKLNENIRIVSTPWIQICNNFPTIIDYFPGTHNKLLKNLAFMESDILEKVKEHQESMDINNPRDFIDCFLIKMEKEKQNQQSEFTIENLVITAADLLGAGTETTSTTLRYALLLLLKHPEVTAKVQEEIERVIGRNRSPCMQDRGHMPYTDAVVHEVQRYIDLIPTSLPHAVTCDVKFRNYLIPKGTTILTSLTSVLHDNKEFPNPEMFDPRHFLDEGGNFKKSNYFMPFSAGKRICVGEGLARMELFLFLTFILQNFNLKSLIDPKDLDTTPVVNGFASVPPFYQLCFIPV
smiles,measurement,setting,value
"C=CC(=O)O[C@H]1Cc2cc3ccc(=O)oc3cc2OC1(C)C [Compound 8, (7S)-(+)-Acrylic acid, 8,8-dimethyl-2-oxo-6,7-dihydro-2H,8H-pyrano [3,2-g]chromen-7-yl ester]",CYP2C19 inhibition (in words),[1],moderately inhibited
same,CYP inhibition 2C19,[1]; [5],48.2%
same,CYP2D6 inhibition (in words),[2],weakly inhibited
same,CYP inhibition 2D6,[2]; [5],18.9%
same,production of TNF-α,"[3]; LPS-stimulated differentiated THP-1 cells, 24 h, ELISA",significantly and dose-dependently reduced
same,"inhibitory activity on TNF-α production at 10 μM, compared with ibrutinib","[3]; compound at 10 μM, ibrutinib at 2 μM",comparable with that of ibrutinib at 2 μM
same,CYP1A2 inhibition (in words),[4],rarely inhibited
same,CYP inhibition 1A2,[4]; [5],<1%
